Test results as given in ChEMBL document CHEMBL4000149, “The effect of glycine replacement with flexible ω-amino acids on the antimicrobial and haemolytic activity of an amphipathic cyclic heptapeptide” (Eur J Med Chem, 2015).
Values after ≈ are worked out from the molar mass of the structure shown. Numbered stars: 1 amine (or outer) side, 2 acyl side, 3 side chain; on linkers, the order of the positions; unused ones are H or OH. Bridge positions count the residues as written; N and C are the ends. Square brackets hold non-standard residues; d marks the D form. Peptide text beside a SMILES is read from it. ξ: configuration not given here. NH(CH2)9CO = O=C(CCCCCCCCCN[*:1])[*:2]; 2Nal = N[C@@H](Cc1ccc2ccccc2c1)C(=O)O; ξAoc(2) = CCCCCCC(N)C(=O)O; Aoc = NCCCCCCCC(=O)O; ξDab = NCCC(N)C(=O)O; GABA = NCCCC(=O)O

Legend:
Staphylococcus aureus = assay: Antimicrobial activity against methicillin-resistant Staphylococcus aureus ATCC 33591 by tube dilution method; format: functional
Escherichia coli = assay: Antimicrobial activity against Escherichia coli ATCC 25922 by tube dilution method; format: functional
Enterococcus faecium = assay: Antimicrobial activity against vancomycin-resistant Enterococcus faecium ATCC 700221 by tube dilution method; format: functional
Klebsiella pneumoniae = assay: Antimicrobial activity against multidrug-resistant Klebsiella pneumoniae ATCC 700603 by tube dilution method; format: functional
Pseudomonas aeruginosa = assay: Antimicrobial activity against Pseudomonas aeruginosa ATCC 27853 by tube dilution method; format: functional
Candida albicans = assay: Antifungal activity against Candida albicans ATCC 200955 by tube dilution method; format: functional
Acinetobacter baumannii = assay: Antimicrobial activity against multidrug-resistant Acinetobacter baumannii ATCC BAA-1605 by tube dilution method; format: functional
[1] = Toxicity in human erythrocytes assessed as hemolysis after 1 hr; format: cell-based, Erythrocyte
[2] = Toxicity in human erythrocytes assessed as hemolysis at 150 uM after 1 hr; format: cell-based, Erythrocyte; details: read-out: Activity

| SMILES | MIC (Staphylococcus aureus) | MIC (Escherichia coli) | MIC (Enterococcus faecium) | MIC (Klebsiella pneumoniae) | MIC (Pseudomonas aeruginosa) | MIC (Candida albicans) | MIC (Acinetobacter baumannii) | EC50 at 1 hr [1] | hemolysis at 1 h, 150 µM [2] |
| --- | --- | --- | --- | --- | --- | --- | --- | --- | --- |
| CC(C)C[C@@H]1NC(=O)CCCCCCCCCNC(=O)[C@H](Cc2ccc3ccccc3c2)NC(=O)[C@H](CCCNC(=N)N)NC(=O)[C@H](CC(C)C)NC(=O)[C@H](Cc2ccc3ccccc3c2)NC(=O)[C@H](CCCNC(=N)N)NC1=O (cyclo([2Nal]LR[2Nal][NH(CH2)9CO]LR)) | 4 µM (≈ 4.41 µg/mL) | 64 µM (≈ 70.6 µg/mL) | 4 µM (≈ 4.41 µg/mL) | > 64 µM | > 64 µM | 16 µM (≈ 17.6 µg/mL) | 16 µM (≈ 17.6 µg/mL) | 15 µM | 100% |
| CC(C)C[C@@H]1NC(=O)CCCCCCCNC(=O)[C@H](Cc2ccc3ccccc3c2)NC(=O)[C@H](CCCNC(=N)N)NC(=O)[C@H](CC(C)C)NC(=O)[C@H](Cc2ccc3ccccc3c2)NC(=O)[C@H](CCCNC(=N)N)NC1=O (cyclo([2Nal][Aoc]LR[2Nal]LR)) | 2 µM (≈ 2.15 µg/mL) | 16 µM (≈ 17.2 µg/mL) | 2 µM (≈ 2.15 µg/mL) | 16 µM (≈ 17.2 µg/mL) | 32 µM (≈ 34.4 µg/mL) | 4 µM (≈ 4.3 µg/mL) | 8 µM (≈ 8.6 µg/mL) | 22 µM | 100% |
| CC(C)C[C@@H]1NC(=O)CNC(=O)[C@H](Cc2ccc3ccccc3c2)NC(=O)[C@H](CCCNC(=N)N)NC(=O)[C@H](CC(C)C)NC(=O)[C@H](Cc2ccc3ccccc3c2)NC(=O)[C@H](CCCCN)NC1=O (cyclo([2Nal]GLK[2Nal]LR)) | 32 µM (≈ 30.8 µg/mL) | 128 µM (≈ 123 µg/mL) | 16 µM (≈ 15.4 µg/mL) | > 128 µM | 128 µM (≈ 123 µg/mL) | 32 µM (≈ 30.8 µg/mL) | > 128 µM | > 150 µM | 14% |
| CC(C)C[C@@H]1NC(=O)CCCNC(=O)[C@H](Cc2ccc3ccccc3c2)NC(=O)[C@H](CCCNC(=N)N)NC(=O)[C@H](CC(C)C)NC(=O)[C@H](Cc2ccc3ccccc3c2)NC(=O)[C@H](CCCNC(=N)N)NC1=O (cyclo([2Nal][GABA]LR[2Nal]LR)) | 16 µM (≈ 16.3 µg/mL) | 64 µM (≈ 65.2 µg/mL) | 8 µM (≈ 8.15 µg/mL) | 128 µM (≈ 130 µg/mL) | 128 µM (≈ 130 µg/mL) | 16 µM (≈ 16.3 µg/mL) | 128 µM (≈ 130 µg/mL) | 230 µM | 22% |
| CC(C)C[C@@H]1NC(=O)CCCNC(=O)C(N)CCNC(=O)[C@H](Cc2ccc3ccccc3c2)NC(=O)[C@H](CCCNC(=N)N)NC(=O)[C@H](CC(C)C)NC(=O)[C@H](Cc2ccc3ccccc3c2)NC(=O)[C@H](CCCNC(=N)N)NC1=O (stereo not given in full) (H-[ξDab][GABA]LR[2Nal]LR[2Nal]; lactam 1-C) | 16 µM (≈ 17.9 µg/mL) | 32 µM (≈ 35.8 µg/mL) | 8 µM (≈ 8.95 µg/mL) | 32 µM (≈ 35.8 µg/mL) | 64 µM (≈ 71.6 µg/mL) | 16 µM (≈ 17.9 µg/mL) | 32 µM (≈ 35.8 µg/mL) | 255 µM | 12% |
| CCCCCCC1NC(=O)CNC(=O)[C@H](Cc2ccc3ccccc3c2)NC(=O)[C@H](CCCNC(=N)N)NC(=O)[C@H](CC(C)C)NC(=O)[C@H](Cc2ccc3ccccc3c2)NC(=O)[C@H](CCCNC(=N)N)NC1=O (stereo not given in full) (cyclo([2Nal]G[ξAoc(2)]R[2Nal]LR)) | 32 µM (≈ 32.6 µg/mL) | 32 µM (≈ 32.6 µg/mL) | 32 µM (≈ 32.6 µg/mL) | 64 µM (≈ 65.2 µg/mL) | 128 µM (≈ 130 µg/mL) | 64 µM (≈ 65.2 µg/mL) | 128 µM (≈ 130 µg/mL) | 55 µM | 100% |
| CC(C)C[C@@H]1NC(=O)CNC(=O)[C@H](Cc2ccc3ccccc3c2)NC(=O)[C@H](CCCCN)NC(=O)[C@H](CC(C)C)NC(=O)[C@H](Cc2ccc3ccccc3c2)NC(=O)[C@H](CCCCN)NC1=O (cyclo([2Nal]GLK[2Nal]LK)) | 32 µM (≈ 29.9 µg/mL) | 128 µM (≈ 120 µg/mL) | 16 µM (≈ 14.9 µg/mL) | > 128 µM | 128 µM (≈ 120 µg/mL) | 64 µM (≈ 59.8 µg/mL) | > 128 µM | > 150 µM | 13% |
| CC(C)C[C@@H]1NC(=O)CNC(=O)[C@H](Cc2ccc3ccccc3c2)NC(=O)[C@H](CCCCN)NC(=O)[C@H](CC(C)C)NC(=O)[C@H](Cc2ccc3ccccc3c2)NC(=O)[C@H](CCCNC(=N)N)NC1=O (cyclo([2Nal]GLR[2Nal]LK)) | 32 µM (≈ 30.8 µg/mL) | 128 µM (≈ 123 µg/mL) | 16 µM (≈ 15.4 µg/mL) | > 128 µM | 128 µM (≈ 123 µg/mL) | 32 µM (≈ 30.8 µg/mL) | > 128 µM | > 150 µM | 19% |
| CCCCCCC1NC(=O)[C@H](Cc2ccc3ccccc3c2)NC(=O)[C@H](CCCNC(=N)N)NC(=O)[C@H](CC(C)C)NC(=O)CNC(=O)[C@H](Cc2ccc3ccccc3c2)NC(=O)[C@H](CCCNC(=N)N)NC1=O (stereo not given in full) | 4 µM (≈ 4.07 µg/mL) | 16 µM (≈ 16.3 µg/mL) | 2 µM (≈ 2.04 µg/mL) | 16 µM (≈ 16.3 µg/mL) | 32 µM (≈ 32.6 µg/mL) | 4 µM (≈ 4.07 µg/mL) | 16 µM (≈ 16.3 µg/mL) | 33 µM | 100% |
| CC(C)C[C@@H]1NC(=O)CNC(=O)[C@H](Cc2ccc3ccccc3c2)NC(=O)[C@H](CCCNC(=N)N)NC(=O)[C@@H]2CCCN2C(=O)[C@H](Cc2ccc3ccccc3c2)NC(=O)[C@H](CCCNC(=N)N)NC1=O (cyclo([2Nal]GLR[2Nal]PR)) | 64 µM (≈ 62.3 µg/mL) | > 128 µM | 32 µM (≈ 31.2 µg/mL) | > 128 µM | > 128 µM | 128 µM (≈ 125 µg/mL) | > 128 µM | > 150 µM | < 8% |
| CC(C)C[C@@H]1NC(=O)CNC(=O)[C@H](Cc2ccc3ccccc3c2)NC(=O)[C@H](CCCNC(=N)N)NC(=O)[C@H](CC(C)C)NC(=O)[C@H](Cc2ccc3ccccc3c2)NC(=O)[C@H](CCCNC(=N)N)NC1=O | 8 µM (≈ 7.92 µg/mL) | 32 µM (≈ 31.7 µg/mL) | 8 µM (≈ 7.92 µg/mL) | 128 µM (≈ 127 µg/mL) | 64 µM (≈ 63.4 µg/mL) | 16 µM (≈ 15.8 µg/mL) | 128 µM (≈ 127 µg/mL) | 215 µM | 27% |
| CC(C)C[C@@H]1NC(=O)[C@H](Cc2ccc3ccccc3c2)NC(=O)[C@H](CCCNC(=N)N)NC(=O)[C@H](CCC(N)=O)NC(=O)CNC(=O)[C@H](Cc2ccc3ccccc3c2)NC(=O)[C@H](CCCNC(=N)N)NC1=O (cyclo([2Nal]GQR[2Nal]LR)) | 128 µM (≈ 129 µg/mL) | > 128 µM | 16 µM (≈ 16.1 µg/mL) | > 128 µM | > 128 µM | 128 µM (≈ 129 µg/mL) | > 128 µM | > 150 µM | < 8% |
| CC(C)C[C@@H]1NC(=O)[C@H](Cc2ccc3ccccc3c2)NC(=O)[C@H](CCCNC(=N)N)NC(=O)[C@H]([C@@H](C)O)NC(=O)CNC(=O)[C@H](Cc2ccc3ccccc3c2)NC(=O)[C@H](CCCNC(=N)N)NC1=O (cyclo([2Nal]GTR[2Nal]LR)) | 32 µM (≈ 31.3 µg/mL) | > 128 µM | 64 µM (≈ 62.6 µg/mL) | > 128 µM | > 128 µM | 128 µM (≈ 125 µg/mL) | > 128 µM | > 150 µM | < 8% |
| CC(C)C[C@@H]1NC(=O)CNC(=O)[C@H](Cc2ccccc2)NC(=O)[C@H](CCCCN)NC(=O)[C@H](CC(C)C)NC(=O)[C@H](Cc2ccccc2)NC(=O)[C@H](CCCCN)NC1=O (cyclo(FGLKFLK)) | > 128 µM | 128 µM (≈ 107 µg/mL) | 128 µM (≈ 107 µg/mL) | > 128 µM | > 128 µM | > 128 µM | 128 µM (≈ 107 µg/mL) | > 150 µM | < 8% |
| CC(C)C[C@@H]1NC(=O)C(N)CCNC(=O)[C@H](Cc2ccc3ccccc3c2)NC(=O)[C@H](CCCNC(=N)N)NC(=O)[C@H](CC(C)C)NC(=O)[C@H](Cc2ccc3ccccc3c2)NC(=O)[C@H](CCCNC(=N)N)NC1=O (stereo not given in full) (H-[ξDab]LR[2Nal]LR[2Nal]; lactam 1-C) | 32 µM (≈ 33.1 µg/mL) | 64 µM (≈ 66.1 µg/mL) | 8 µM (≈ 8.27 µg/mL) | 64 µM (≈ 66.1 µg/mL) | 128 µM (≈ 132 µg/mL) | 16 µM (≈ 16.5 µg/mL) | > 128 µM | 265 µM | < 8% |
